In patent US12673975B2, “Cyclic peptide, cell scaffold material, cell separating material, and medium” (FUJIFILM Corporation, priority 2019, dated 2026):
Where two headings read alike, the source gives them in different places. Starred links: 1 amine or outer side, 2 acyl side, 3 side chain; linkers in the order of their positions; H or OH if unused. Positions of bridges follow the written chain, without caps; N, C: chain ends. Non-standard residues stand in square brackets, D forms with d. Residues, ends and D or L forms follow the SMILES beside them. hCys = N[C@@H](CCS)C(=O)O; Dab = NCC[C@H](N)C(=O)O; X2 = O=C(C[*:1])[*:2]

How the values were obtained:
[1] = Evaluation of molecule stability (alkali treatment, residual rate by LC/MS); format: physicochemical; settings: for Performance evaluation: Stability (residual rate of cyclic peptide after alkali treatment): 500 μM peptide aqueous solution plus equivalent of 1 M sodium hydroxide, 15° C., 3 hours, LC/MS peak area; for Stability (molecule stability, residual rate of the cyclic peptide rank): alkali treatment, residual rate by LC/MS
Method in brief: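 500 μM aqueous cyclic peptide mixed with an equal volume of 1 M NaOH and held 3 h at 15 °C. Residual rate is total LC/MS peak area after treatment relative to untreated (100%), using a C18 column, pH 3 ammonium formate/acetonitrile gradient, 45 °C, ESI±.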

human integrin αvβ5 = human integrin αvβ5 (Homo sapiens, UniProt P06756+P18084); assay: Evaluation of integrin binding property (surface plasmon resonance, Biacore 3000, immobilized cyclic peptide)
Chain of human integrin αvβ5 (P06756 31-1048): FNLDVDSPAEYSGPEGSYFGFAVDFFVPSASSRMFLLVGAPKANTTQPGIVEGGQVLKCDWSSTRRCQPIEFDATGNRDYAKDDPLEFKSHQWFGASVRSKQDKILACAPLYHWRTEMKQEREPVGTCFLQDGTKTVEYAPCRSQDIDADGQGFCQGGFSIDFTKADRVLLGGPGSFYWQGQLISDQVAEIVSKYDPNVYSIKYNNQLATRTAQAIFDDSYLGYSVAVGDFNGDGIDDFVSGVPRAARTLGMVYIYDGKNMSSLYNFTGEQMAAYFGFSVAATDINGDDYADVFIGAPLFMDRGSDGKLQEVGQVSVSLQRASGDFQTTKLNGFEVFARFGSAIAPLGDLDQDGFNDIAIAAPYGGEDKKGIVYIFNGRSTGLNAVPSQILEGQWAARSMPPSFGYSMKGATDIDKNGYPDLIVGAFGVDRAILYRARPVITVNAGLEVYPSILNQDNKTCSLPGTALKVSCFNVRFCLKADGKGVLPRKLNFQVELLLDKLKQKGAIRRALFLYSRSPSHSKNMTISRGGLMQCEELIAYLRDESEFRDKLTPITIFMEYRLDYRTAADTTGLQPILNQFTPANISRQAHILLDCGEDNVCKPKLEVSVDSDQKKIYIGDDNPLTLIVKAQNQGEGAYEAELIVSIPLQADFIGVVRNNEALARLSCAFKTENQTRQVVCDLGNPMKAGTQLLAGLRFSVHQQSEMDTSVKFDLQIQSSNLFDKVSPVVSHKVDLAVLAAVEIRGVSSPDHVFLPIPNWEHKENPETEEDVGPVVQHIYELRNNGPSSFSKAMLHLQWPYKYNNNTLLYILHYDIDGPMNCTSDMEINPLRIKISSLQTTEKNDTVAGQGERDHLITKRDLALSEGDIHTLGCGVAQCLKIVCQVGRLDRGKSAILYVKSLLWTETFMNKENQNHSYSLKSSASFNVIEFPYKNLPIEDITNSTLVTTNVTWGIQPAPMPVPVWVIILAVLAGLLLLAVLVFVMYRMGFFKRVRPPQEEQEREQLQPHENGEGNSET
Chain of human integrin αvβ5 (P18084 24-799): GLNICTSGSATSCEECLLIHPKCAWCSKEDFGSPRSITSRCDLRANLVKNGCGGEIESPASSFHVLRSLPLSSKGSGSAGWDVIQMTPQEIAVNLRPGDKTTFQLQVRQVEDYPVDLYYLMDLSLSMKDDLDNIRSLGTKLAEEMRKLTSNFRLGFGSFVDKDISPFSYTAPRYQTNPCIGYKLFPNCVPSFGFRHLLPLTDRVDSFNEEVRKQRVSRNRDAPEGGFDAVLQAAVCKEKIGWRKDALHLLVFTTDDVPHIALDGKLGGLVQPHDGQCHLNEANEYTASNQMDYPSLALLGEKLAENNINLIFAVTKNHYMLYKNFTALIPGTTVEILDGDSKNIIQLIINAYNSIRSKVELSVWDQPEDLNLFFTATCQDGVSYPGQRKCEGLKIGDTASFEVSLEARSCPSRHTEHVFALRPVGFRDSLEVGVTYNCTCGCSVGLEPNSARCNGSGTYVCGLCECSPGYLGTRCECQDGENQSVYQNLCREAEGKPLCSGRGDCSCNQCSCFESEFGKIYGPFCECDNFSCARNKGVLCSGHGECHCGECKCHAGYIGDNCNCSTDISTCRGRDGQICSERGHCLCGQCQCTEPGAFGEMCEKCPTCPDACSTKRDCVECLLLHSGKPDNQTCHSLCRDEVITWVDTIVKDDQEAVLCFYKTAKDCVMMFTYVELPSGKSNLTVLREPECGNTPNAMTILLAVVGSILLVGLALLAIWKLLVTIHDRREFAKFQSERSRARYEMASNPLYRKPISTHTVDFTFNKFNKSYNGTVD
Method in brief: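 SPR with cyclic peptide amine-coupled via EDC/NHS to a CM5 chip, blank channel as reference. Integrin αvβ5 at 30, 100, 300 and 1,000 nM injected 10 min at 25 °C in HEPES buffer pH 7.4 with 5 mM MgCl2, 30 min buffer flow, EDTA regeneration; Kd from reference-subtracted signals, graded by category.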

[2] = SPR, 25° C., HEPES buffer with 5 mM magnesium chloride, integrin 30-1,000 nM, read-out: Performance evaluation: Binding activity (dissociation constant between the cyclic peptide and human integrin αvβ5)
[3] = surface plasmon resonance, immobilized cyclic peptide, human integrin αvβ5, read-out: Binding activity (integrin binding property, dissociation constant rank)

Compound	Performance evaluation: Stability (residual rate of cyclic peptide after alkali treatment) [1]	Kd (human integrin αvβ5; [2])	Stability (molecule stability, residual rate of the cyclic peptide rank) [1]	Kd (human integrin αvβ5; [3])
CC[C@H](C)[C@@H]1NC(=O)[C@@H](NC(=O)[C@H](CCCCN)NC(=O)[C@H](CCCCN)NC(=O)[C@@H](N)CCCCN)CCSCC(=O)NCC[C@@H](C(=O)O)NC(=O)[C@H](CCCNC(=N)N)NC(=O)[C@H](Cc2ccccc2)NC(=O)[C@H]([C@@H](C)O)NC(=O)[C@H](CC(=O)O)NC(=O)CNC(=O)[C@H](CCCNC(=N)N)NC(=O)[C@@H]2CCCN2C1=O [Cyclic peptide 61, KKK-(Hcy)-IPRGDTFR(Dab(acetyl))] (H-KKK[hCys]IPRGDTFR[Dab]-OH; linker 4-13 via X2)	A (The residual rate of the cyclic peptide is 70% or more.)	< 50 nM		
C[C@@H]1NC(=O)[C@H](Cc2ccccc2)NC(=O)[C@H](CO)NC(=O)[C@H](CC(=O)O)NC(=O)CNC(=O)[C@H](CCCNC(=N)N)NC(=O)[C@H]([C@@H](C)O)NC(=O)[C@H]([C@@H](C)O)NC(=O)[C@@H](NC(=O)[C@H](CCCCN)NC(=O)[C@H](CCCCN)NC(=O)[C@@H](N)CCCCN)CCSCC(=O)NCC[C@@H](C(=O)O)NC1=O [Cyclic peptide 157, KKK-(Hcy)-TTRGDSFA(Dab(acetyl))] (H-KKK[hCys]TTRGDSFA[Dab]-OH; linker 4-13 via X2)			A (The residual rate of the cyclic peptide is 70% or more.)	< 50 nM
CC(C)C[C@@H]1NC(=O)[C@@H](NC(=O)[C@H](CCCCN)NC(=O)[C@H](CCCCN)NC(=O)[C@@H](N)CCCCN)CCSCC(=O)NCC[C@@H](C(=O)O)NC(=O)[C@H](C)NC(=O)[C@H](Cc2ccccc2)NC(=O)[C@H]([C@@H](C)O)NC(=O)[C@H](CC(=O)O)NC(=O)CNC(=O)[C@H](CCCNC(=N)N)NC(=O)[C@@H]2CCCN2C1=O [Cyclic peptide 146, KKK-(Hcy)-LPRGDTFA(Dab(acetyl))] (H-KKK[hCys]LPRGDTFA[Dab]-OH; linker 4-13 via X2)			A (The residual rate of the cyclic peptide is 70% or more.)	< 50 nM
C[C@H](NC(=O)[C@H](CCCCN)NC(=O)[C@H](CCCCN)NC(=O)[C@@H](N)CCCCN)C(=O)N[C@H]1CCSCC(=O)NCC[C@@H](C(=O)N[C@@H](CCC(=O)O)C(=O)O)NC(=O)[C@H](CCCNC(=N)N)NC(=O)[C@H](Cc2ccc(O)cc2)NC(=O)[C@H](CC(N)=O)NC(=O)[C@H](CC(=O)O)NC(=O)CNC(=O)[C@H](CCCNC(=N)N)NC(=O)[C@@H]2CCCN2C(=O)[C@H](CCC(=O)O)NC1=O [Cyclic peptide 43, KKKA-(Hcy)-EPRGDNYR(Dab(acetyl))E] (H-KKKA[hCys]EPRGDNYR[Dab]E-OH; linker 5-14 via X2)	A (The residual rate of the cyclic peptide is 70% or more.)	50 to 100 nM		
C[C@H](NC(=O)[C@@H]1CCNC(=O)CSCC[C@H](NC(=O)[C@H](CCCCN)NC(=O)[C@H](CCCCN)NC(=O)[C@@H](N)CCCCN)C(=O)N2CCC[C@H]2C(=O)N[C@@H](CCCNC(=N)N)C(=O)NCC(=O)N[C@@H](CC(=O)O)C(=O)N[C@@H](CC(N)=O)C(=O)N[C@@H](Cc2ccccc2)C(=O)N[C@@H](CCCNC(=N)N)C(=O)N1)C(=O)O [Cyclic peptide 9, KKK-(Hcy)-PRGDNFR(Dab(acetyl))A] (H-KKK[hCys]PRGDNFR[Dab]A-OH; linker 4-12 via X2)	A (The residual rate of the cyclic peptide is 70% or more.)	100 to 200 nM		
C[C@@H]1NC(=O)[C@H](Cc2ccccc2)NC(=O)[C@H](CO)NC(=O)[C@H](CC(=O)O)NC(=O)CNC(=O)[C@H](CCCNC(=N)N)NC(=O)[C@@H]2CCCN2C(=O)[C@H]([C@@H](C)O)NC(=O)[C@@H](NC(=O)[C@H](CCCCN)NC(=O)[C@H](CCCCN)NC(=O)[C@@H](N)CCCCN)CCSCC(=O)NCC[C@@H](C(=O)O)NC1=O [Cyclic peptide 156, KKK-(Hcy)-TPRGDSFA(Dab(acetyl))] (H-KKK[hCys]TPRGDSFA[Dab]-OH; linker 4-13 via X2)			A (The residual rate of the cyclic peptide is 70% or more.)	50 to 100 nM
